From patent EP4810040A2, “INHIBITORS OF APOL1 AND METHODS OF USING SAME” (priority 2020, dated 2022)

Biological target: T1, APOL1 G1 (Homo sapiens, UniProt O14791, I384M/S342G)
T1 sequence (O14791 28-398 S342G/I384M): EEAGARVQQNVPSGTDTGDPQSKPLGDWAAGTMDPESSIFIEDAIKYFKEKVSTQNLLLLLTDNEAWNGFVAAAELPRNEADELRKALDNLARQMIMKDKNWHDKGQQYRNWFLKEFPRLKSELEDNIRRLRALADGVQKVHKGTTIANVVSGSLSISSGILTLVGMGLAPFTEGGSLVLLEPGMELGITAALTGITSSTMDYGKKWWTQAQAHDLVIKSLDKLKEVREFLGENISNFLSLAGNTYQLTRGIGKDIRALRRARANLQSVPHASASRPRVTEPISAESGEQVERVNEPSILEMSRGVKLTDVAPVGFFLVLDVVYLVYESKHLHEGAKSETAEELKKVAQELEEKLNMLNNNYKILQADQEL
Experiment: MultiTox-Fluor Multiplex Cytotoxicity Assay, tet-inducible APOL1 G1 T-REx-HEK293 cells
Format: cell-based
Parameters: expressed in transfected cells; host or cells: T-REx HEK293, clone G1 DC3.25 (pAAVS1-Puro-APOL1 G1)
Conditions: for IC90: HEK293, Multi-Tox Assay, APOL1 variant (G0/G1/G2) of the HEK293 cells not given, read-out: Multi-Tox Assay IC90
Procedure, shortened: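 Over 24 h at 37 °C, compounds (10-point 3-fold series from 10 µM, duplicate) were co-incubated with 50 ng/mL tetracycline inducing APOL1 G1 in T-REx-HEK293 cells. Viability/cytotoxicity measured by MultiTox-Fluor as dead-to-live fluorescence ratio, expressed as percent of control between uninduced and induced wells and fitted.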

[1] = Multi-Tox Assay, APOL1 variant not given

Row | Compound | IC90 [nM] | Emax (Multi-Tox Assay, APOL1 variant not given, read-out: Multi-Tox Assay Max Activity (%)) [%] | Multi-Tox Assay Max Activity (%) [1] [%]
1 | C[C@H]1C[C@@]2(C[C@@H](c3cn(Cc4ccc(CO)cc4)nn3)N1)OC[C@@H](O)c1cc(Cl)sc12 [Compound 224, (2'S,4S,6'S,7S)-2-chloro-2'-[1-[[4-(hydroxymethyl)phenyl]methyl]triazol-4-yl]-6'-methyl-spiro[4,5-dihydrothieno[2,3-c]pyran-7,4'-piperidine]-4-ol] | 50 to 500 | 99 | –
2 | C[C@H]1C[C@@]2(C[C@@H](c3cn(Cc4ccc(CO)cc4)nn3)N1)OCC(F)(F)c1cc(Cl)sc12 [Compound 225, (4-((4-((2S,4S,6S)-2'-chloro-4',4'-difluoro-2-methyl-4',5'-dihydrospiro[piperidine-4,7'-thieno[2,3-c]pyran]-6-yl)-1H-1,2,3-triazol-1-yl)methyl)phenyl)methanol] | 50 to 500 | – | 97.0
3 | COCC(O)Cn1cc([C@@H]2C[C@]3(C[C@H](C)N2)OC[C@@H](O)c2cc(Cl)sc23)nn1 (some centres unmarked) [Compound 226] | 50 to 500 | – | 100.0
4 | C[C@H]1C[C@@]2(C[C@@H](c3cn(CC4CCCCO4)nn3)N1)OC[C@@H](O)c1cc(Cl)sc12 (some centres unmarked) [Compound 227] | 50 to 500 | – | 100.0
5 | C[C@H]1C[C@@]2(C[C@@H](c3cn(CCCS(C)(=O)=O)nn3)N1)OC[C@@H](O)c1cc(Cl)sc12 [Compound 228] | 50 to 500 | – | 100.0
6 | COCCOCCn1cc([C@@H]2C[C@]3(C[C@H](C)N2)OC[C@@H](O)c2cc(Cl)sc23)nn1 [Compound 229] | 50 to 500 | – | 98.0
7 | CC(C)C(=O)NCCn1cc([C@@H]2C[C@]3(C[C@H](C)N2)OC[C@@H](O)c2cc(Cl)sc23)nn1 [Compound 230] | > 500 | – | 98.0
8 | C[C@H]1C[C@@]2(C[C@@H](c3cn(Cc4ccccc4S(C)(=O)=O)nn3)N1)OC[C@@H](O)c1cc(Cl)sc12 [Compound 231] | 50 to 500 | – | 95.0
9 | C[C@H]1C[C@@]2(C[C@@H](c3cn(Cc4n[nH]c5ccccc45)nn3)N1)OC[C@@H](O)c1cc(Cl)sc12 [Compound 232] | 50 to 500 | – | 100.0
10 | C[C@H]1C[C@@]2(C[C@@H](c3cn(CC4(O)CC4)nn3)N1)OC[C@@H](O)c1cc(Cl)sc12 [Compound 233] | 50 to 500 | – | 100.0
11 | C[C@H]1C[C@@]2(C[C@@H](c3cn(Cc4ncnc5[nH]ccc45)nn3)N1)OC[C@@H](O)c1cc(Cl)sc12 [Compound 234] | 50 to 500 | – | 100.0
12 | Cc1cc(C)nc(CCn2cc([C@@H]3C[C@]4(C[C@H](C)N3)OC[C@@H](O)c3cc(Cl)sc34)nn2)c1 [Compound 235] | 50 to 500 | – | 100.0
13 | C[C@H]1C[C@@]2(C[C@@H](c3cn(Cc4ccc(C#N)nc4)nn3)N1)OC[C@@H](O)c1cc(Cl)sc12 [Compound 236] | 50 to 500 | – | 100.0
14 | Cc1noc(C)c1Cn1cc([C@@H]2C[C@]3(C[C@H](C)N2)OC[C@@H](O)c2cc(Cl)sc23)nn1 [Compound 237] | 50 to 500 | – | –
15 | C[C@H]1C[C@@]2(C[C@@H](c3cn(Cc4ccc(S(C)(=O)=O)cc4)nn3)N1)OC[C@@H](O)c1cc(Cl)sc12 [Compound 238] | 50 to 500 | – | 100
16 | C[C@H]1C[C@@]2(C[C@@H](c3cn(CC(=O)N4CCCCC4)nn3)N1)OC[C@@H](O)c1cc(Cl)sc12 [Compound 239] | 50 to 500 | – | 97.0
17 | C[C@H]1C[C@@]2(C[C@@H](c3cn(CC4(CO)CCOCC4)nn3)N1)OC[C@@H](O)c1cc(Cl)sc12 [Compound 240] | > 500 | – | 95.0
18 | C[C@H]1C[C@@]2(C[C@@H](c3cn(CC4(CO)CC4)nn3)N1)OC[C@@H](O)c1cc(Cl)sc12 [Compound 242] | 50 to 500 | – | 97.0
19 | C[C@H]1C[C@@]2(C[C@@H](c3cn(Cc4cnc5cnccn45)nn3)N1)OC[C@@H](O)c1cc(Cl)sc12 [Compound 243] | 50 to 500 | – | 98.0
20 | C[C@H]1C[C@@]2(C[C@@H](c3cn(CCO)nn3)N1)OC[C@@H](O)c1cc(Cl)sc12 [Compound 244] | 50 to 500 | – | 100.0
21 | COc1ccc(Cn2cc([C@@H]3C[C@]4(C[C@H](C)N3)OC[C@@H](O)c3cc(Cl)sc34)nn2)cc1F [Compound 245] | 50 to 500 | – | –
22 | C[C@H]1C[C@@]2(C[C@@H](c3cn(C[C@@H](O)CO)nn3)N1)OC[C@@H](O)c1cc(Cl)sc12 [Compound 246] | 50 to 500 | – | 97.0
23 | C[C@H]1C[C@@]2(C[C@@H](c3cn(CC(C)(C)O)nn3)N1)OC[C@@H](O)c1cc(Cl)sc12 [Compound 247] | > 500 | – | 91.0

Row | Compound | IC90 [nM] | Emax (Multi-Tox Assay, APOL1 variant not given, read-out: Multi-Tox Assay Max Activity (%)) [%] | Multi-Tox Assay Max Activity (%) [1] [%]
24 | C[C@H]1C[C@@]2(C[C@@H](c3cn(Cc4cncs4)nn3)N1)OC[C@@H](O)c1cc(Cl)sc12 [Compound 248] | 50 to 500 | – | 101.0
25 | C[C@H]1C[C@@]2(C[C@@H](c3cn(Cc4ccc5nc(O)[nH]c5c4)nn3)N1)OC[C@@H](O)c1cc(Cl)sc12 [Compound 249] | > 500 | – | 92.0
26 | C[C@H]1C[C@@]2(C[C@@H](c3cn(CC4CCC4)nn3)N1)OC[C@@H](O)c1cc(Cl)sc12 [Compound 250] | 50 to 500 | – | 95.0
27 | Cc1nccn1CCCn1cc([C@@H]2C[C@]3(C[C@H](C)N2)OC[C@@H](O)c2cc(Cl)sc23)nn1 [Compound 251] | 50 to 500 | – | –
28 | C[C@H]1C[C@@]2(C[C@@H](c3cn(CCC(C)(C)O)nn3)N1)OC[C@@H](O)c1cc(Cl)sc12 [Compound 252] | 50 to 500 | – | 100.0
29 | C[C@H]1C[C@@]2(C[C@@H](c3cn(Cc4ccc(C#N)cc4)nn3)N1)OC[C@@H](O)c1cc(Cl)sc12 [Compound 253] | 50 to 500 | – | 100.0
30 | C[C@H]1C[C@@]2(C[C@@H](c3cn(CC4CCC(=O)NC4)nn3)N1)OC[C@@H](O)c1cc(Cl)sc12 (some centres unmarked) [Compound 254] | > 500 | – | 92.0
31 | C[C@H]1C[C@@]2(C[C@@H](c3cn(CC#N)nn3)N1)OC[C@@H](O)c1cc(Cl)sc12 [Compound 255] | 50 to 500 | – | 100.0
32 | CC(CO)Cn1cc([C@@H]2C[C@]3(C[C@H](C)N2)OC[C@@H](O)c2cc(Cl)sc23)nn1 (some centres unmarked) [Compound 256] | 50 to 500 | – | 96.0
33 | CCOCCn1cc([C@@H]2C[C@]3(C[C@H](C)N2)OC[C@@H](O)c2cc(Cl)sc23)nn1 [Compound 257] | 50 to 500 | – | 101.0
34 | CNC(=O)C(C)Cn1cc([C@@H]2C[C@]3(C[C@H](C)N2)OC[C@@H](O)c2cc(Cl)sc23)nn1 (some centres unmarked) [Compound 258] | > 500 | – | 98.0
35 | C[C@H]1C[C@@]2(C[C@@H](c3cn(Cc4ccc(O)cc4)nn3)N1)OC[C@@H](O)c1cc(Cl)sc12 [Compound 259] | 50 to 500 | – | 100.0
36 | Cc1cccc(OCC(O)Cn2cc([C@@H]3C[C@]4(C[C@H](C)N3)OC[C@@H](O)c3cc(Cl)sc34)nn2)c1 (some centres unmarked) [Compound 260] | 50 to 500 | – | –
37 | Cc1ccccc1C(O)Cn1cc([C@@H]2C[C@]3(C[C@H](C)N2)OC[C@@H](O)c2cc(Cl)sc23)nn1 (some centres unmarked) [Compound 261] | 50 to 500 | – | 100.0
38 | C[C@H]1C[C@@]2(C[C@@H](c3cn(CCc4ccncn4)nn3)N1)OC[C@@H](O)c1cc(Cl)sc12 [Compound 262] | 50 to 500 | – | –
39 | COC(=O)Cn1cc([C@@H]2C[C@]3(C[C@H](C)N2)OC[C@@H](O)c2cc(Cl)sc23)nn1 [Compound 263] | > 500 | – | 86.0
40 | CC(CO)CCn1cc([C@@H]2C[C@]3(C[C@H](C)N2)OC[C@@H](O)c2cc(Cl)sc23)nn1 (some centres unmarked) [Compound 264] | 50 to 500 | – | 100.0
41 | C[C@H]1C[C@@]2(C[C@@H](c3cn(CC4CCS(=O)(=O)C4)nn3)N1)OC[C@@H](O)c1cc(Cl)sc12 (some centres unmarked) [Compound 265] | 50 to 500 | – | –
42 | C[C@H]1C[C@@]2(C[C@@H](c3cn(Cc4ccc(OC5CCOCC5)cc4)nn3)N1)OC[C@@H](O)c1cc(Cl)sc12 [Compound 266] | 50 to 500 | – | 100.0
43 | C[C@H]1C[C@@]2(C[C@@H](c3cn(CC4CCOCC4)nn3)N1)OC[C@@H](O)c1cc(Cl)sc12 [Compound 267] | 50 to 500 | – | –
44 | C[C@H]1C[C@@]2(C[C@@H](c3cn(Cc4cccc5c4OCCO5)nn3)N1)OC[C@@H](O)c1cc(Cl)sc12 [Compound 268] | 50 to 500 | – | –
45 | C[C@H]1C[C@@]2(C[C@@H](c3cn(CC4CCOC4)nn3)N1)OC[C@@H](O)c1cc(Cl)sc12 (some centres unmarked) [Compound 269] | 50 to 500 | – | –
46 | COCC1(Cn2cc([C@@H]3C[C@]4(C[C@H](C)N3)OC[C@@H](O)c3cc(Cl)sc34)nn2)CC1 [Compound 270] | > 500 | – | 93.0
